This passage reports IC50 results from US5929075A, “Apolipoprotein-B synthesis inhibitors” (Janssen Pharmaceutica, N.V., priority 1994, dated 1999).

In the assay the test system is apolipoprotein B. Nature of the assay: Apolipoprotein B (apo B) inhibition test in cultured human liver cells (Hepg2-cells). Particulars: concentration of the drug needed to reduce apoB secretion to 50% of the control, overnight at 37° C. The class given is cell-based. On the procedure: Cultured human liver cells (Hepg2-cells), which synthesize and secrete low-density lipoproteins, were incubated overnight at 37° C. in a liquid medium containing radioactively labelled leucine. Thus radioactively labelled leucine was incorporated into the apolipoprotein B. The liquid medium was decanted and the apolipoprotein B was isolated by means of a double immunoprecipitation, i.e. first an apolipoprotein B-specific antibody (antibody1) was added to the liquid medium and subsequently a second antibody (antibody2) was added which binds specifically to the apoB-antibody1 -complex. The thus formed apoB-antibody1 -antibody2 complex precipitated and was isolated by centrifuge. Quantification of the amount of apolipoprotein B synthesized during the night resulted from measuring the radioactivity of the isolated complex. To measure the inhibiting activity of the test compound, that test compound was added to the liquid medium at different concentrations and the concentration of apolipoprotein B synthesized in the presence of a test compound (concentration apoB(after)) was compared to the concentration of apolipoprotein B which was synthesized in the absence of the test compound (concentration apoB(control)). For each experiment the inhibition of apolipoprotein-B formation was expressed as
% inhibition=100×(1-concentration of apoB(after)/concentration
When more experiments were carried out for the same concentration, the median value of the inhibition calculated for these experiments was calculated. IC50 -values (concentration of the drug needed to reduce apoB secretion to 50% of the control) were also computed.
In the case of `CCC(C)n1ncn(-c2ccc(N3CCN(c4ccc(OC[C@H]5CO[C@](CSc6nnc(O)n6C)(c6ccc(Cl)cc6)O5)cc4)CC3)cc2)c1=O` (relative stereo) [Compound 58], the IC50 – broadly, the point on the concentration scale where inhibition reaches its midpoint – stood at 310 nM. Compound `CCC(C)n1ncn(-c2ccc(N3CCN(c4ccc(OC[C@H]5CO[C@](CSc6ncnn6C)(c6ccc(Cl)cc6)O5)cc4)CC3)cc2)c1=O` (relative stereo) [Compound 60] had an IC50 of 46 nM.

The compound `CC(C)Cn1ncn(-c2ccc(N3CCN(c4ccc(OC[C@H]5CO[C@](CSc6ncnn6C)(c6ccc(Cl)cc6)O5)cc4)CC3)cc2)c1=O` (relative stereo) [Compound 61] gave an IC50 of 81 nM.

`CCC(C)n1ncn(-c2ccc(N3CCN(c4ccc(OC[C@H]5CO[C@](CSc6ncnn6C)(c6ccc(F)cc6F)O5)cc4)CC3)cc2)c1=O` (relative stereo) [Compound 62] gave an IC50 of 190 nM. Compared with the last compound, the IC50 is about 2.3-fold higher.

Consider `CCC(C)n1ncn(-c2ccc(N3CCN(c4ccc(OC[C@H]5CO[C@](CSc6ncnn6C)(c6ccc(F)cc6)O5)cc4)CC3)cc2)c1=O` (relative stereo) [Compound 63], for which the IC50 worked out at 46 nM. This IC50 lies about 4.1-fold lower than the previous one. In turn, `CCC(CC)n1ncn(-c2ccc(N3CCN(c4ccc(OC[C@H]5CO[C@](CSc6ncnn6C)(c6ccc(F)cc6)O5)cc4)CC3)cc2)c1=O` (relative stereo) [Compound 64] yielded an IC50 of 160 nM. Against the preceding compound, the IC50 is about 3.5-fold higher. As for `CCC(CC)n1ncn(-c2ccc(N3CCN(c4ccc(OC[C@H]5CO[C@](CSc6ncnn6C)(c6ccc(F)cc6F)O5)cc4)CC3)cc2)c1=O` (relative stereo) [Compound 65], the midpoint of inhibition, the IC50, lay at 290 nM.

Consider `Cn1ncnc1SC[C@]1(c2ccc(F)cc2)OC[C@H](COc2ccc(N3CCN(c4ccc(-n5cnn(C6CCCC6)c5=O)cc4)CC3)cc2)O1` (relative stereo) [Compound 66], for which the IC50 came out at 130 nM. Next, `Cn1ncnc1SC[C@]1(c2ccc(F)cc2F)OC[C@H](COc2ccc(N3CCN(c4ccc(-n5cnn(C6CCCC6)c5=O)cc4)CC3)cc2)O1` (relative stereo) [Compound 67]: 180 nM; `CC(C)n1cnn(-c2ccc(N3CCN(c4ccc(OC[C@H]5CO[C@](CSc6ncnn6C)(c6ccc(Cl)cc6)O5)cc4)CC3)cc2)c1=O` (relative stereo) [Compound 68]: 81 nM; `CCC(C)n1cnn(-c2ccc(N3CCN(c4ccc(OC[C@H]5CO[C@](CSc6ncnn6C)(c6ccc(Cl)cc6)O5)cc4)CC3)cc2)c1=O` (relative stereo) [Compound 69]: 26 nM.

Regarding `CCC(C)n1cnn(-c2ccc(N3CCN(c4ccc(OC[C@H]5CO[C@](CSc6ncnn6C)(c6ccc(F)cc6F)O5)cc4)CC3)cc2)c1=O` (relative stereo) [Compound 71], 120 nM corresponded to half-maximal inhibition (IC50). Take `Cn1ncnc1SC[C@]1(c2ccc(F)cc2F)OC[C@H](COc2ccc(N3CCN(c4ccc(-n5ncn(C6CCCC6)c5=O)cc4)CC3)cc2)O1` (relative stereo) [Compound 72]: 190 nM corresponded to half-maximal inhibition (IC50). `CCC(CC)n1cnn(-c2ccc(N3CCN(c4ccc(OC[C@H]5CO[C@](CSc6ncnn6C)(c6ccc(F)cc6F)O5)cc4)CC3)cc2)c1=O` (relative stereo) [Compound 73] yielded an IC50 of 180 nM.

`Cn1ncnc1SC[C@]1(c2ccc(F)cc2)OC[C@H](COc2ccc(N3CCN(c4ccc(-n5ncn(C6CCCC6)c5=O)cc4)CC3)cc2)O1` (relative stereo) [Compound 74] had an IC50 of 140 nM.

On to `CCC(CC)n1cnn(-c2ccc(N3CCN(c4ccc(OC[C@H]5CO[C@](CSc6ncnn6C)(c6ccc(F)cc6)O5)cc4)CC3)cc2)c1=O` (relative stereo) [Compound 75], for which the IC50 was 120 nM. The compound `CCC(C)n1ncn(-c2ccc(N3CCN(c4ccc(OC[C@H]5CO[C@](CSc6ncn[nH]6)(c6ccc(Cl)cc6)O5)cc4)CC3)cc2)c1=O` (relative stereo) [Compound 76] showed an IC50 of 24 nM. The result for `CCC(C)n1ncn(-c2ccc(N3CCN(c4ccc(OC[C@H]5CO[C@](CSc6ncnn6CC)(c6ccc(Cl)cc6)O5)cc4)CC3)cc2)c1=O` (relative stereo) [Compound 77] reads 71 nM; that for `CCCn1nc(CC)nc1SC[C@]1(c2ccc(Cl)cc2)OC[C@H](COc2ccc(N3CCN(c4ccc(-n5cnn(C(C)CC)c5=O)cc4)CC3)cc2)O1` (relative stereo) [Compound 78], 53 nM; that for `CCCCn1ncnc1SC[C@]1(c2ccc(Cl)cc2)OC[C@H](COc2ccc(N3CCN(c4ccc(-n5cnn(C(C)CC)c5=O)cc4)CC3)cc2)O1` (relative stereo) [Compound 79], 46 nM. `CCCn1ncnc1SC[C@]1(c2ccc(Cl)cc2)OC[C@H](COc2ccc(N3CCN(c4ccc(-n5cnn(C(C)CC)c5=O)cc4)CC3)cc2)O1` (relative stereo) [Compound 80] came in with an IC50 of 72 nM.

In turn, `CCC(C)n1ncn(-c2ccc(N3CCN(c4ccc(OC[C@H]5CO[C@](CSc6nc(C)nn6C)(c6ccc(Cl)cc6)O5)cc4)CC3)cc2)c1=O` (relative stereo) [Compound 81] displayed an IC50 of 49 nM. This IC50 and that of the compound before are within 1.5-fold of each other. For `CCC(C)n1ncn(-c2ccc(N3CCN(c4ccc(OC[C@@H]5CO[C@@](CSc6ncnn6C(C)C)(c6ccc(Cl)cc6)O5)cc4)CC3)cc2)c1=O` (relative stereo) [Compound 82], half-maximal inhibition (IC50) required 31 nM. As to `CCC(C)n1cnn(-c2ccc(N3CCN(c4ccc(OC[C@H]5CO[C@](CSc6ncn[nH]6)(c6ccc(Cl)cc6)O5)cc4)CC3)cc2)c1=O` (relative stereo) [Compound 83], the IC50 was 15 nM. This IC50 lies about 2.1-fold lower than the previous one. As to `CC(C)Cn1cnn(-c2ccc(N3CCN(c4ccc(OC[C@H]5CO[C@](CSc6ncn[nH]6)(c6ccc(Cl)cc6)O5)cc4)CC3)cc2)c1=O` (relative stereo) [Compound 84], the IC50 worked out at 28 nM. `CC(C)Cn1cnn(-c2ccc(N3CCN(c4ccc(OC[C@H]5CO[C@](CSc6ncnn6C)(c6ccc(Cl)cc6)O5)cc4)CC3)cc2)c1=O` (relative stereo) [Compound 87] displayed an IC50 of 69 nM. For the compound `CCC(C)n1ncn(-c2ccc(N3CCN(c4ccc(OC[C@H]5CO[C@](CSc6nnnn6C)(c6ccc(Cl)cc6)O5)cc4)CC3)cc2)c1=O` (relative stereo) [Compound 88], the IC50 turned out to be 450 nM.

`CCC(C)n1ncn(-c2ccc(N3CCN(c4ccc(OC[C@H]5CO[C@](CSc6nnnn6-c6ccccc6)(c6ccc(Cl)cc6)O5)cc4)CC3)cc2)c1=O` (relative stereo) [Compound 89] came in with an IC50 of 510 nM.

As to `CCC(C)n1ccn(-c2ccc(N3CCN(c4ccc(OC[C@H]5CO[C@](CSc6nncn6C)(c6ccc(Cl)cc6)O5)cc4)CC3)cc2)c1=O` (relative stereo) [Compound 93], the IC50 is 27 nM. `CCC(C)N1CCN(c2ccc(N3CCN(c4ccc(OC[C@H]5CO[C@](CSc6nncn6C)(c6ccc(Cl)cc6)O5)cc4)CC3)cc2)C1=O` (relative stereo) [Compound 94]: the IC50 amounted to 190 nM. The result for `CCC(C)n1ncn(-c2ccc(N3CCN(c4ccc(OC[C@H]5CO[C@](CSc6ncccn6)(c6ccc(Cl)cc6)O5)cc4)CC3)cc2)c1=O` (relative stereo) [Compound 101] reads 160 nM; that for `CCC(C)n1ncn(-c2ccc(N3CCN(c4ccc(OC[C@H]5CO[C@](CSc6nc(C)cc(C)n6)(c6ccc(Cl)cc6)O5)cc4)CC3)cc2)c1=O` (relative stereo) [Compound 102], 370 nM; that for `CCC(C)n1ncn(-c2ccc(N3CCN(c4ccc(OC[C@H]5CO[C@](CSc6ccccn6)(c6ccc(Cl)cc6)O5)cc4)CC3)cc2)c1=O` (relative stereo) [Compound 105], 99 nM. As to `CCC(C)n1ncn(-c2ccc(N3CCN(c4ccc(OC[C@H]5CO[C@](CSc6ccncc6)(c6ccc(Cl)cc6)O5)cc4)CC3)cc2)c1=O` (relative stereo) [Compound 106], it took 880 nM to reach half-maximal inhibition (IC50).

`CCC(C)n1ncn(-c2ccc(N3CCN(c4ccc(OC[C@H]5CO[C@](CSc6nc(C)co6)(c6ccc(Cl)cc6)O5)cc4)CC3)cc2)c1=O` (relative stereo) [Compound 107] displayed an IC50 of 45 nM. Take `CCC(C)n1ncn(-c2ccc(N3CCN(c4ccc(OC[C@H]5CO[C@](CSc6nccs6)(c6ccc(Cl)cc6)O5)cc4)CC3)cc2)c1=O` (relative stereo) [Compound 108]: the IC50 turned out to be 26 nM. Turning to `CCC(C)n1cnn(-c2ccc(N3CCN(c4ccc(OC[C@H]5CO[C@](CSc6nccs6)(c6ccc(Cl)cc6)O5)cc4)CC3)cc2)c1=O` (relative stereo) [Compound 110], 27 nM corresponded to half-maximal inhibition (IC50). Turning to `CC(C)Cn1cnn(-c2ccc(N3CCN(c4ccc(OC[C@H]5CO[C@](CSc6nccs6)(c6ccc(Cl)cc6)O5)cc4)CC3)cc2)c1=O` (relative stereo) [Compound 111], half-maximal inhibition (IC50) required 62 nM. On to `CCC(C)n1ncn(-c2ccc(N3CCN(c4ccc(OC[C@@H]5CO[C@@](CSc6ncn(C(C)C)n6)(c6ccc(Cl)cc6)O5)cc4)CC3)cc2)c1=O` (relative stereo) [Compound 112, (±)-cis-4-[4-[4-[4-[[2-(4-chlorophenyl)-2-[[[1-(1-methylethyl)-1H-1,2,4-triazol-3-yl]thio]methyl]-1,3-dioxolan-4-yl]methoxy]phenyl]-1-piperazinyl]phenyl]-2,4-dihydro-2-(1-methylpropyl)-3H-1,2,4-triazol-3-one], for which half-maximal inhibition (IC50) required 980 nM.

In turn, `CCC(CC)n1ccn(-c2ccc(N3CCN(c4ccc(OC[C@H]5CO[C@](CSc6nncn6C)(c6ccc(Cl)cc6)O5)cc4)CC3)cc2)c1=O` (relative stereo) [Compound 122] gave a 50% inhibitory concentration (IC50) of 88 nM.
